Data set [1] can be described thus: Particle size (diameter) and polydispersity index of lipid nanoparticles. It counts as physicochemical. Particulars: nanoparticles comprising the lipid. The gist of the method:
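Size and PDI measured by dynamic light scattering (Zetasizer Nano ZS) in 1×PBS. LNPs comprised DSPC, cholesterol, PEG lipid and ionizable lipid, some with rhodamine-DOPE.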

A short description of data set [2]: Encapsulation efficiency (% EE) of lipid nanoparticles. It counts as physicochemical. Particulars: nanoparticles comprising the lipid. The gist of the method:
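RNA-loaded LNPs were diluted to ~5 μg/mL in TE buffer (pH 7.5) and incubated 15 min at 37 °C with buffer or 2% Triton X-100 solution, then RiboGreen fluorescence was read (ex ~480/em ~520 nm). After blank subtraction, free RNA % = intact-sample fluorescence ÷ Triton-disrupted fluorescence.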

Data set [3] is described as follows: Lipid nanoparticle surface hydrophobicity by Generalized Polarization by Laurdan (N-GP). It counts as physicochemical. Particulars: for Lipid nanoparticle surface hydrophobicity (N-GP*): Table 2a, Laurdan, higher N-GP indicates a less polar surface; for LNP surface hydrophobicity (N-GP*): Table 2b, nanoparticles comprising the lipid. The gist of the method: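 Laurdan, a fluorescent aminonaphthalene ketone lipid, is post-inserted into the nanoparticle surface. Its fluorescence spectrum is collected and converted to a normalized Generalized Polarization (N-GP) value as the measure of surface hydrophobicity.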

Data set [4] is described as follows: Apparent pKa of lipid nanoparticles. The data set is classed as physicochemical. Particulars: for Apparent pKa: Table 2a, nanoparticles comprising the lipid; for Apparent pKa 95% CI: Table 2b, 95% confidence interval.
For the next data set, the system named is CD-1 mice. Nature of the data set: Expression of hEPO induced by LNPs (mRNA encoding hEPO) administered to mice. It counts as in vivo. Particulars: Table 4a, serum, 6 h after intravenous injection; for Avg. hEPO Concentration (mIU/mL)* ± Avg. SD: ELLA Simple Plex Assay. The procedure, abridged:
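LNPs of DSPC, cholesterol, PEG lipid and test ionizable lipid carrying hEPO mRNA were given intravenously. Serum hEPO was measured 6 h post-injection by ELLA Simple Plex immunoassay calibrated to the 2nd IRP WHO standard.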

The mark [5] stands for this setting: Table 2a, DSPC, cholesterol, PEG lipid.

SMILES strings stand for the structures.

Turning to `CCCCCCCC(CCCCCCC)OC(=O)CCCCCCCN(CCCCCCCC(=O)OCCC(CCCC)CCCC)CCCNS(=O)(=O)CCOC` [Compound 17], the figures for the PDI in data set [1] (Table 2a) and in data set [1] (Table 3) were 0.128 and 0.129, respectively. Further, the entries for the “Diameter (nm)” value in data set [1] (setting [5]) and in data set [1] (Table 3) were 89.7 nm and 90 nm, respectively. The figures for the “% EE” value in data set [2] (Table 2a) and in data set [2] (Table 3) were 77.1% and 93.5%, respectively. Further, the “Lipid nanoparticle surface hydrophobicity (N-GP*)” value in data set [3] was 1.02. Besides, the “Apparent pKa” value in data set [4] is 6.689. Besides, the “Avg. hEPO Concentration (mIU/mL) ± Avg. SD” value in the data set on CD-1 mice worked out at 1.00E+07 ± 2.34E+05 mIU/mL.

As for `CCCCCCCC(CCCCCCC)OC(=O)CCCCCCCN(CCCCCCCC(=O)OCCC(CCCC)CCCC)CCCNC(=O)C1(C)CC1` [Compound 18], the “Diameter (nm)” value in data set [1] (Table 2b) worked out at 144.2 nm; in data set [1] (Table 3), 95.9 nm. Moreover, the PDI in data set [1] (Table 2b) is given as 0.207; in data set [1] (Table 3), 0.174. Further, the “% EE” value in data set [2] (Table 2b) was 18.6%; in data set [2] (Table 3) it was 23.9%. The “LNP surface hydrophobicity (N-GP*)” value in data set [3] was determined as 1.05. In addition, the “Apparent pKa 95% CI” value in data set [4] fell in the range of 6.744 to 6.808. The “Avg. hEPO Concentration (mIU/mL)* ± Avg. SD” value with CD-1 mice turned out to be 5.45E+06 ± 1.26E+05 mIU/mL.

In the case of `CCCCCCCCC(CCCCCCCC)OC(=O)CCCCCCCN(CCCCCCCC(=O)OCCC(CCCC)CCCC)CCCNc1n[s+]([O-])nc1NC` (stereo not drawn) [Compound 1], the PDI in data set [1] (Table 2a) came out at 0.342; in data set [1] (Table 3), 0.083. Moreover, the “Diameter (nm)” value in data set [1] (setting [5]) was 69.7 nm; in data set [1] (Table 3), 63.3 nm. For the same molecule, the “% EE” value in data set [2] (Table 2a) is recorded as 98.1%; in data set [2] (Table 3), 97.9%. Further, the “Lipid nanoparticle surface hydrophobicity (N-GP*)” value in data set [3] is listed as 1.07. The “Apparent pKa” value in data set [4] is 7.187. Besides, in the data set with CD-1 mice, the “Avg. hEPO Concentration (mIU/mL) ± Avg. SD” value worked out at 7.26E+06 ± 1.51E+05 mIU/mL.

On to `CCCCCCCCC(CCCCCCCC)OC(=O)CCCCCCCN(CCCCCCCC(=O)OCCC(CCCC)CCCC)CCCNS(=O)(=O)Cc1ccon1` [Compound 6], for which the figures for the PDI in data set [1] (Table 2a) and in data set [1] (Table 3) were 0.042 and 0.163, respectively. Besides, the “Diameter (nm)” value is given as 60.2 nm in data set [1] (setting [5]) and 65.9 nm in data set [1] (Table 3). In addition, the “% EE” value was found to be 93.2% in data set [2] (Table 2a) and 96.7% in data set [2] (Table 3). The “Lipid nanoparticle surface hydrophobicity (N-GP*)” value in data set [3] was 0.99. The “Apparent pKa” value in data set [4] worked out at 6.323. Further, the “Avg. hEPO Concentration (mIU/mL) ± Avg. SD” value with CD-1 mice came to 5.41E+06 ± 6.06E+04 mIU/mL.

For `CCCCCCCCC(CCCCCCCC)OC(=O)CCCCCCCN(CCCCCCCC(=O)OCCC(CCCC)CCCC)CCCNc1ncccc1N` [Compound 7], the “Diameter (nm)” value in data set [1] (Table 2b) is reported as 76.9 nm; in data set [1] (Table 3), 72.6 nm. Also, the results for the PDI in data set [1] (Table 2b) and in data set [1] (Table 3) were 0.129 and 0.133, respectively. The “% EE” value in data set [2] (Table 2b) amounted to 98.0%; in data set [2] (Table 3), 99.0%. In addition, in data set [3], the “LNP surface hydrophobicity (N-GP*)” value came out at 1.17. In addition, in data set [4], the “Apparent pKa 95% CI” value fell in the range of 6.654 to 6.751. In addition, the “Avg. hEPO Concentration (mIU/mL)* ± Avg. SD” value with CD-1 mice was 1.04E+06 ± 2.04E+04 mIU/mL.

In the case of `CCCCCCCC(CCCCCCC)OC(=O)CCCCCCCN(CCCCCCCC(=O)OCCC(CCCC)CCCC)CCCNc1noc(N)n1` [Compound 16], the “Diameter (nm)” value is given as 70.9 nm in data set [1] (Table 2b) and 56.8 nm in data set [1] (Table 3). The PDI in data set [1] (Table 2b) was 0.118; in data set [1] (Table 3), 0.113. Besides, the “% EE” value came to 98.2% in data set [2] (Table 2b) and 97.7% in data set [2] (Table 3). Moreover, the “LNP surface hydrophobicity (N-GP*)” value in data set [3] was 1.19. Also, the “Apparent pKa 95% CI” value in data set [4] lay within 6.344 to 6.479. Moreover, the “Avg. hEPO Concentration (mIU/mL)* ± Avg. SD” value with CD-1 mice is recorded as 6.19E+05 ± 1.05E+04 mIU/mL.

As to `CCCCCC(CCCCC)CCOC(=O)CCCCCCCN(CCCCCCCC(=O)OCCC(CCCC)CCCC)CCCNC(=O)C1(C)CC1` [Compound 11], the “Diameter (nm)” value in data set [1] (Table 2b) amounted to 200.1 nm; in data set [1] (Table 3), 117 nm. The PDI was determined as 0.199 in data set [1] (Table 2b) and 0.262 in data set [1] (Table 3). Also, the “% EE” value is 18.2% in data set [2] (Table 2b) and 34.3% in data set [2] (Table 3). For the same molecule, the “LNP surface hydrophobicity (N-GP*)” value in data set [3] is on record as 1.01. Besides, in data set [4], the “Apparent pKa 95% CI” value lay in the range of 6.906 to 6.961. Also, in the data set on CD-1 mice, the “Avg. hEPO Concentration (mIU/mL)* ± Avg. SD” value is listed as 4.15E+06 ± 8.08E+04 mIU/mL.

Source of the values: patent US20240226026A1, “BRANCHED TAIL LIPID COMPOUNDS AND COMPOSITIONS FOR INTRACELLULAR DELIVERY OF THERAPEUTIC AGENTS” (ModernaTX, Inc., priority 2021, published 2024).
